Reference: patent US11214564B2, “Compounds with thymine skeleton for use in medicine” (TECHNISCHE UNIVERSITÄT DRESDEN, priority 2019, dated 2022)

Target: HSP27 (Homo sapiens, UniProt P04792)
Test: Aggregation assay: HSP27 chaperone activity on heat-induced aggregation of citrate synthase
Assay type: biochemical
Details: compound 10 μM; 1.44 μM CS, 481 nM HSP27, 43° C., 500 nm
Description: To test how small molecules affect the chaperone activity of HSP27, misfolding and aggregation of citrate synthase (CS), a well-known in vitro client protein of HSP27, was measured. Citrate synthase misfolds and aggregates when exposed to heat shock at 43° C. This heat denaturation is prevented or delayed in the presence of HSP27 (CS+HSP27) (Jakob et al. (1993)). […] The samples were incubated at 43° C. and the aggregation behavior of CS was monitored in a spectrometer (PerkinElmer LS55) at a wavelength of 500 nm. Substances inhibiting HSP27's chaperone activity lead to continued denaturation of the client protein and its aggregation in solution. This inhibition correlates with the strength of the interaction between HSP27 and the test substance, which is related to its binding efficiency.
In the reference experiment BVDU (CS+HSP27+BVDU) was tested at a concentration of 750 μM as previously described (Heinrich et al. (2016)).
The compounds according to the invention were tested at a concentration of 10 μM.

Sequence of HSP27 (P04792 whole entry): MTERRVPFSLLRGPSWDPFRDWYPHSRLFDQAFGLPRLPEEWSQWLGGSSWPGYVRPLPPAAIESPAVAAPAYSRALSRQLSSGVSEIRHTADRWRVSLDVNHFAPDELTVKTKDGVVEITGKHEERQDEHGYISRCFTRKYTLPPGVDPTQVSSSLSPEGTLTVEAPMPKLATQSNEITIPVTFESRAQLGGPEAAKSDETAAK

Going from COc1ccc(-c2cccc(CC(=O)Nc3ccc(-n4cc(C)c(=O)[nH]c4=O)cc3)c2)cc1 [Compound 31, 2-(4′-methoxy-[1,1′-biphenyl]-3-yl)-N-(4-(5-methyl-2,4-dioxo-3,4-dihydro-pyrimidin-1(2H)-yl)phenyl) acetamide] to Cc1cn(-c2ccc(NC(=O)Cc3cccc(-c4ccc(Cl)cc4)c3)cc2)c(=O)[nH]c1=O [Compound 15, 2-(4′-chloro-[1,1′-biphenyl]-3-yl)-N-(4-(5-methyl-2,4-dioxo-3,4-dihydropyrimidin-1(2H)-yl)phenyl) acetamide], the “aggregation value related to the value from reference experiment (CS + HSP27 + BVDU), which was set at 1.0” value (“aggregation value related to the value” below) rises from 0.78 to 1.11.

Compared with O=C(Cc1cn(-c2ccc(-n3ccc(=O)[nH]c3=O)cc2)nn1)NCc1ccc(Cl)c(Cl)c1 [Compound 53], Cc1cc(-n2ccc(=O)[nH]c2=O)ccc1NC(=O)Cc1cccc(-c2ccc(Cl)c(Cl)c2)c1 [Compound 18, 2-(3′,4′-dichloro-[1,1′-biphenyl]-3-yl)-N-(4-(2,4-dioxo-3,4-dihydro-pyrimidin-1(2H)-yl)-2-methyl-phenyl)acetamide] is lower in “aggregation value related to the value” value: 1.67 for the first, 1 for the second.

First: Cc1ccc(-c2cccc(CC(=O)Nc3ccc(-n4ccc(=O)[nH]c4=O)cc3C)c2)cc1Cl [Compound 10, 2-(3′-chloro-4′-methyl-[1,1′-biphenyl]-3-yl)-N-(4-(2,4-dioxo-3,4-dihydro-pyrimidin-1(2H)-yl)-2-methyl-phenyl)acetamide]
Second: COc1ccc(-c2cccc(CC(=O)Nc3ccc(-n4ccc(=O)[nH]c4=O)cc3C)c2)cc1Cl [Compound 14, 2-(3′-chloro-4′-methoxy-[1,1′-biphenyl]-3-yl)-N-(4-(2,4-dioxo-3,4-dihydro-pyrimidin-1(2H)-yl)-2-methyl-phenyl)acetamide]
The “aggregation value related to the value” value of the first is higher: 1.3 for the first, 1.2 for the second.

Going from Cc1ccc(-c2cccc(C(=O)Nc3ccc(-n4ccc(=O)[nH]c4=O)cc3)c2)cc1Cl [Compound 50, 3′-chloro-N-(4-(2,4-dioxo-3,4-dihydro-pyrimidin-1(2H)-yl)phenyl)-4′-methyl-[1,1′-biphenyl]-3-carboxamide] to COc1ccc(-c2cccc(CC(=O)Nc3ccc(-n4ccc(=O)[nH]c4=O)cc3)c2)cc1Cl [Compound 27, 2-(3′-chloro-4′-methoxy-[1,1′-biphenyl]-3-yl)-N-(4-(2,4-dioxo-3,4-dihydro-pyrimidin-1(2H)-yl)phenyl) acetamide], the “aggregation value related to the value” value rises from 0.73 to 0.83.

Compared with O=C(Cc1cccc(-c2ccc(Cl)c(Cl)c2)c1)Nc1cccc(-n2ccc(=O)[nH]c2=O)c1 [Compound 40, 2-(3′,4′-dichloro-[1,1′-biphenyl]-3-yl)-N-(3-(2,4-dioxo-3,4-dihydro-pyrimidin-1(2H)-yl)phenyl) acetamide], COc1ccc(-c2cccc(CC(=O)Nc3cccc(-n4ccc(=O)[nH]c4=O)c3)c2)cc1Cl [Compound 41, 2-(3′-chloro-4′-methoxy-[1,1′-biphenyl]-3-yl)-N-(3-(2,4-dioxo-3,4-dihydro-pyrimidin-1(2H)-yl)phenyl) acetamide] is lower in “aggregation value related to the value” value: 1.8 for the first, 1.24 for the second.

Going from O=C(Nc1ccc(-n2cc(Cl)c(=O)[nH]c2=O)cc1)c1cccc(-c2cccc(OC(F)(F)F)c2)c1 [Compound 48, N-(4-(5-chloro-2,4-dioxo-3,4-dihydro-pyrimidin-1(2H)-yl)phenyl)-3′-(trifluoro-methoxy)-[1,1′-biphenyl]-3-carboxamide] to O=C(Cc1cccc(-c2cccc(OC(F)(F)F)c2)c1)Nc1ccc(-n2cc(Cl)c(=O)[nH]c2=O)cc1 [Compound 17, N-(4-(5-chloro-2,4-dioxo-3,4-dihydro-pyrimidin-1(2H)-yl)phenyl)-2-(3′-(trifluoro-methoxy)-[1,1′-biphenyl]-3-yl) acetamide], the “aggregation value related to the value” value rises from 0.7 to 1.01.

Compared with CC(C)Oc1ccc(-c2cccc(CC(=O)Nc3ccc(-n4ccc(=O)[nH]c4=O)cc3)c2)cc1Cl [Compound 8, 2-(3′-chloro-4′-isopropoxy-[1,1′-biphenyl]-3-yl)-N-(4-(2,4-dioxo-3,4-dihydro-pyrimidin-1(2H)-yl)phenyl) acetamide], O=C(Cc1cccc(-c2cccc(Cl)c2)c1)Nc1ccc(-n2ccc(=O)[nH]c2=O)cc1 [Compound 26, 2-(3′-chloro-[1,1′-biphenyl]-3-yl)-N-(4-(2,4-dioxo-3,4-dihydro-pyrimidin-1(2H)-yl)phenyl) acetamide] is lower in “aggregation value related to the value” value: 1.34 for the first, 0.85 for the second.

Going from O=C(Nc1ccc(Cn2ccc(=O)[nH]c2=O)cc1)c1cccc(-c2ccc(Cl)c(Cl)c2)c1 [Compound 34, 3′,4′-dichloro-N-(4-((2,4-dioxo-3,4-dihydro-pyrimidin-1(2H)-yl)methyl)phenyl)-[1,1′-biphenyl]-3-carboxamide] to O=C(Nc1ccc(Cn2ccc(=O)[nH]c2=O)cc1)c1cccc(-c2cccc(Cl)c2)c1 [Compound 36, 3′-chloro-N-(4-((2,4-dioxo-3,4-dihydro-pyrimidin-1(2H)-yl)methyl)phenyl)-[1,1′-biphenyl]-3-carboxamide], the “aggregation value related to the value” value falls from 1.8 to 1.23.

Going from O=C(Cc1cccc(-c2ccc(Cl)cc2)c1)Nc1ccc(-n2cc(F)c(=O)[nH]c2=O)cc1 [Compound 16, 2-(4′-chloro-[1,1′-biphenyl]-3-yl)-N-(4-(5-fluoro-2,4-dioxo-3,4-dihydro-pyrimidin-1(2H)-yl)phenyl) acetamide] to Cc1cn(-c2ccc(NC(=O)Cc3cccc(-c4ccc(Cl)cc4Cl)c3)cc2)c(=O)[nH]c1=O [Compound 7, 2-(2′,4′-dichloro-[1,1′-biphenyl]-3-yl)-N-(4-(5-methyl-2,4-dioxo-3,4-dihydro-pyrimidin-1(2H)-yl)phenyl) acetamide], the “aggregation value related to the value” value rises from 1.04 to 1.35.

First: COc1cccc(-c2cccc(CC(=O)Nc3ccc(-n4cc(C)c(=O)[nH]c4=O)cc3)c2)c1 [Compound 22, 2-(3′-methoxy-[1,1′-biphenyl]-3-yl)-N-(4-(5-methyl-2,4-dioxo-3,4-dihydro-pyrimidin-1(2H)-yl)phenyl) acetamide]
Second: Cc1cn(-c2ccc(NC(=O)Cc3cccc(-c4cccc(OC(F)(F)F)c4)c3)cc2)c(=O)[nH]c1=O [Compound 11, N-(4-(5-methyl-2,4-dioxo-3,4-dihydro-pyrimidin-1(2H)-yl)phenyl)-2-(3′-(trifluoro-methoxy)-[1,1′-biphenyl]-3-yl) acetamide]
The “aggregation value related to the value” value of the first is lower: 0.91 for the first, 1.28 for the second.

In the case of Cc1cn(-c2ccc(NC(=O)Cc3cccc(-c4cccc(C(F)(F)F)c4)c3)cc2)c(=O)[nH]c1=O [Compound 9, N-(4-(5-methyl-2,4-dioxo-3,4-dihydro-pyrimidin-1(2H)-yl)phenyl)-2-(3′-(trifluoromethyl)-[1,1′-biphenyl]-3-yl)acetamide], the “aggregation value related to the value” value was 1.3.
